Data published in paper PMC7473772 (eLife, 2020).
“And” between values parts separate entries of the source, which are not always exact repeats. Equal entries are not always repeated. Where two headings read alike, the source gives them in different places. Marks after values point to notes of the source that are not given here.

Tests used:
TbAQP2/HAPT1 = TbAQP2/HAPT1 (Trypanosoma brucei brucei, UniProt Q6ZXT3); test: cell-based; type: cell-based
T. b. brucei 2T1 = test: Drug sensitivity assay (resazurin); type: cell-based; details: Trypanosoma brucei
Experimental: The tbaqp2/tbaqp3 null cells ([Baker et al., 2012]) and tbaqp1-2-3 null cells ([Jeacock et al., 2017]) (both obtained from David Horn, University of Dundee, UK) are derived from the 2T1 strain of T. b. brucei ([Alsford and Horn, 2008]). The CRK12 RNAi cell line^28 was obtained from Dr Tansy Hammarton (University of Glasgow, UK) and is also based on the 2T1 cell line; RNAi expression was induced with 1 µg/ml tetracycline in the medium. All experiments were performed with bloodstream form trypanosomes grown in vitro in HMI-11 medium as described ([Wallace et al., 2002]) at 37°C in a 5% CO2 atmosphere. Cultures were routinely maintained in 10 ml of this medium, being seeded at 5 × 10^4 cells/ml and passed to fresh medium at reaching approximately 3 × 10^6 cells/ml after 48 hr. For transport experiments 150 or 200 ml of culture was seeded at the same density in large flasks and incubated until the culture reached late-log phase.
Drug sensitivity assays for T. b. brucei bloodstream forms used the cell viability dye resazurin (Sigma) and were performed exactly as described ([Wallace et al., 2002]; [Bridges et al., 2007]) in 96-well plates with doubling dilutions of test compound, starting at 100 µM, over 2 rows of the plate (23 dilutions plus no-drug control). Incubation time with test compound was 48 hr (37°C/5% CO2), followed by an additional 24 hr in the presence of the dye.

tbaqp2/tbaqp3 null cells = test: microbe, parasite or virus in culture; type: cell-based, Trypanosoma brucei brucei; details: Trypanosoma brucei
tbaqp2 null (AQP2-KO) = test: Drug sensitivity assay (resazurin); type: cell-based; details: Trypanosoma brucei
[1] = tested on: TbAQP2 expressed in tbaqp2 null; test: Drug sensitivity assay (resazurin); type: cell-based; details: Trypanosoma brucei
tbaqp1-2-3 null cells = test: Drug sensitivity assay (resazurin), pentamidine and SHAM; type: cell-based, Trypanosoma brucei brucei; details: KO AQP1-3
[2] = tested on: tbaqp1-2-3 null cells expressing TbAQP2WT; test: as above; type: cell-based, Trypanosoma brucei brucei; details: +AQP2 W.T in KO AQP1-3
[3] = tested on: tbaqp1-2-3 null cells expressing TbAQP2 position 84, 118 and 218 Trp and Met mutants; test: as above; type: cell-based, Trypanosoma brucei brucei
s427WT bloodstream forms = type: cell-based, Trypanosoma brucei brucei; details: for Inhibition of pentamidine transport: after preincubation
[4] = tested on: T. b. brucei s427WT cells; type: cell-based, Trypanosoma brucei brucei
[5] = tested on: T. b. brucei s427 WT (bloodstream forms); type: cell-based, Trypanosoma brucei brucei; details: CCCP 20, gramicidin 10, Nigericin 20, NEM 1000; Control -95.4
[6] = 3 repeats, read-out: EC50, MEAN

Chain of TbAQP2/HAPT1 (Q6ZXT3 whole entry): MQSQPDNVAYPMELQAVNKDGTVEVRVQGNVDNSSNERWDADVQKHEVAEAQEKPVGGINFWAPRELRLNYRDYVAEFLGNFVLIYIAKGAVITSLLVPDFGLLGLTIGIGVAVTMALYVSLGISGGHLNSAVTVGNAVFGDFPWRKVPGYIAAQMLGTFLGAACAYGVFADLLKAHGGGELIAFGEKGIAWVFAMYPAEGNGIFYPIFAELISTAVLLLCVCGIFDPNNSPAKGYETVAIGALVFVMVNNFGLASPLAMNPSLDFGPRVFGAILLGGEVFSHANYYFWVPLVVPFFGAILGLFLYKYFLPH

**Q.** Which results are given for `CC[n+]1c(-c2ccccc2)c2cc(N/N=N/c3cccc(C(=N)N)c3)ccc2c2ccc(N)cc21` [Isometamidium]?
**A.** ΔG0 (TbAQP2/HAPT1): -7.43 kcal/mol; δ(ΔG0) (TbAQP2/HAPT1): 2.72 kcal/mol; Ki (TbAQP2/HAPT1; HAPT Ki, AVG): 3.54 µM; Ki (TbAQP2/HAPT1; Ki): 3.5 µM; EC50 (T. b. brucei 2T1; 48 h drug + 24 h resazurin, read-out: EC50 control 2T1 AVG): 0.112 µM; EC50 (T. b. brucei 2T1; read-out: EC50): 0.112 ± 0.012 µM; EC50 (tbaqp2/tbaqp3 null cells): 0.095 ± 0.012 µM; EC50 (tbaqp2 null (AQP2-KO); read-out: EC50 AQP2-KO AVG, AQP2-KO / tbaqp2 null, 48 h drug + 24 h resazurin): 0.103 µM; EC50 (tbaqp2 null (AQP2-KO); tbaqp2 null, read-out: EC50): 0.103 ± 0.014 µM; EC50 [1]: 0.098 ± 0.024 µM

**Q.** Which EC50 (tbaqp1-2-3 null cells; [6]) does the source give for `O=C(NO)c1ccccc1O` [SHAM] here?
**A.** The EC50 was 7.9 µM.

**Q.** And the EC50 (tbaqp1-2-3 null cells; read-out: EC50, single repeats)?
**A.** The EC50 was 7.38 µM and 7.93 µM and 8.39 µM.

**Q.** What about the EC50 [2, 6] of the same molecule?
**A.** The EC50 was 18.6 µM.

**Q.** And the EC50 ([2]; read-out: EC50, single repeats)?
**A.** Its EC50 is 18.5 µM and 18.1 µM and 19.2 µM.

**Q.** And the EC50 ([3]; +L84M in KO AQP1-3, 3 repeats, read-out: EC50, MEAN)?
**A.** The EC50 was 18.1 µM.

**Q.** And the EC50 ([3]; +L84M in KO AQP1-3, read-out: EC50, single repeats)?
**A.** Its EC50 is 17.6 µM and 17.7 µM and 19.1 µM.

**Q.** What about the EC50 ([3]; +L84W in KO AQP1-3, 3 repeats, read-out: EC50, MEAN) of the same molecule?
**A.** The EC50 was 13.2 µM.

**Q.** And the EC50 ([3]; +L84W in KO AQP1-3, read-out: EC50, single repeats)?
**A.** Its EC50 is 11.3 µM and 13.7 µM and 14.6 µM.

**Q.** And the EC50 ([3]; +L84W/L118W in KO AQP1-3, 3 repeats, read-out: EC50, MEAN)?
**A.** Its EC50 is 12.2 µM.

**Q.** And the EC50 ([3]; +L84W/L118W in KO AQP1-3, read-out: EC50, single repeats)?
**A.** Its EC50 is 11.7 µM and 12.3 µM and 12.6 µM.

**Q.** And the EC50 ([3]; +L118M in KO AQP1-3, 3 repeats, read-out: EC50, MEAN)?
**A.** Its EC50 is 11.5 µM.

**Q.** What about the EC50 ([3]; +L118M in KO AQP1-3, read-out: EC50, single repeats) of the same molecule?
**A.** The EC50 was 10.9 µM and 12.3 µM and 11.4 µM.

**Q.** What about the EC50 ([3]; +L118W in KO AQP1-3, 3 repeats, read-out: EC50, MEAN) of the same molecule?
**A.** The EC50 was 10.8 µM.

**Q.** And the EC50 ([3]; +L118W in KO AQP1-3, read-out: EC50, single repeats)?
**A.** The EC50 was 10.4 µM and 11.1 µM and 10.9 µM.

**Q.** And the EC50 ([3]; +L218M in KO AQP1-3, 3 repeats, read-out: EC50, MEAN)?
**A.** Its EC50 is 15.2 µM.

**Q.** What about the EC50 ([3]; +L218M in KO AQP1-3, read-out: EC50, single repeats) of the same molecule?
**A.** Its EC50 is 15.8 µM and 12.7 µM and 17.1 µM.

**Q.** What about the EC50 ([3]; +L218W in KO AQP1-3, 3 repeats, read-out: EC50, MEAN) of the same molecule?
**A.** The EC50 was 15.9 µM.

**Q.** And the EC50 ([3]; +L218W in KO AQP1-3, read-out: EC50, single repeats)?
**A.** The EC50 was 14.7 µM and 16.3 µM and 16.9 µM.

**Q.** What does the source list for “carbonyl cyanide m-chlorophenyl hydrazone [CCCP]”?
**A.** Effect of ionophore on pentamidine uptake (s427WT bloodstream forms; 25 nM [3H]-pentamidine, 1 mM adenosine, 3 min pre-incubation): strongly inhibited; Inhibition of pentamidine transport (s427WT bloodstream forms; 1 µM): ~ 63%; Inhibition of pentamidine transport (s427WT bloodstream forms; 5 µM): ~ 90%; pentamidine uptake (s427WT bloodstream forms; CCCP 0.25, AVG): 106.6 percentage of the uninhibited control; pentamidine uptake (s427WT bloodstream forms; CCCP 0.25, single repeats): 101 percentage of the uninhibited control and 112.1 percentage of the uninhibited control; pentamidine uptake (s427WT bloodstream forms; CCCP 1, AVG): 36.9 percentage of the uninhibited control; pentamidine uptake (s427WT bloodstream forms; CCCP 1, single repeats): 34.6 percentage of the uninhibited control and 39.1 percentage of the uninhibited control; pentamidine uptake (s427WT bloodstream forms; CCCP 5, AVG): 10.3 percentage of the uninhibited control; pentamidine uptake (s427WT bloodstream forms; CCCP 10, AVG): 4.3 percentage of the uninhibited control; 3H-penta (s427WT bloodstream forms; CCCP 20, gramicidin 10, Nigericin 20, NEM 1000, Control = 100): 4.97*; pentamidine uptake (s427WT bloodstream forms; CCCP 20, AVG): 5.0 percentage of the uninhibited control; 3H-penta, outlier (s427WT bloodstream forms; CCCP 20, repeated in the column outlier, Control = 100): 4.97; Inhibition of [3H]-suramin uptake (endocytosis) ([4]; 20 µM CCCP, pre-incubation 3 min, suramin accumulation over 10 min): 32.6%; suramin accumulated, % of no CCCP control ([4]; +CCCP, 10 minutes): 67.3935 % of no CCCP control; pmol suramin accumulated in 10 minutes (Average) ([4]; +CCCP, Average of experiments): 0.5894 pmol; pmol suramin accumulated in 10 minutes (AVG pmol) ([4]; +CCCP, single experiments): 0.4589 pmol and 0.5929 pmol and 0.7163 pmol; PMF [5]: -45.6
